Legend:
Assay in all cases: relative viability (nuclei count vs DMSO), 5 days (fraction); higher = more cells survive
Carboplatin + Alpelisib = compound: C1CC(C1)(C(=O)O)C(=O)O.[NH2-].[NH2-].[Pt+2] [Carboplatin] + Cc1nc(NC(=O)N2CCC[C@H]2C(N)=O)sc1-c1ccnc(C(C)(C)C(F)(F)F)c1 [Alpelisib] (partner 2 µM)
In short: (§1)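 Values are medians from duplicate plates. Each reflects relative viability, defined as the nuclei count of treated wells over that of vehicle wells. Lung cancer cell lines in 1536-well plates were pin-tool dosed one day after seeding with one drug alone or with a fixed anchor-drug dose plus five library-drug doses (not always all listed) in √10 steps, then fixed, stained and imaged at 4× after 5 days.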

MLN4924 + AZD7762 = compound: NS(=O)(=O)OC[C@@H]1C[C@@H](n2ccc3c(N[C@H]4CCc5ccccc54)ncnc32)C[C@@H]1O [MLN4924] + NC(=O)Nc1cc(-c2cccc(F)c2)sc1C(=O)N[C@H]1CCCNC1 [AZD7762] (partner 0.2 µM)
In short: as §1

GSK126 + Tozasertib = compound: CC[C@H](C)N1C=C(C2=C(C=C(C=C21)C3=CN=C(C=C3)N4CCNCC4)C(=O)NCC5=C(C=C(NC5=O)C)C)C [GSK126] + Cc1cc(Nc2cc(N3CCN(C)CC3)nc(Sc3ccc(NC(=O)C4CC4)cc3)n2)n[nH]1 [Tozasertib] (partner 0.1 µM)
In short: as §1

MLN4924 + Navitoclax = compound: NS(=O)(=O)OC[C@@H]1C[C@@H](n2ccc3c(N[C@H]4CCc5ccccc54)ncnc32)C[C@@H]1O [MLN4924] + CC1(C)CCC(c2ccc(Cl)cc2)=C(CN2CCN(c3ccc(C(=O)NS(=O)(=O)c4ccc(N[C@H](CCN5CCOCC5)CSc5ccccc5)c(S(=O)(=O)C(F)(F)F)c4)cc3)CC2)C1 [Navitoclax] (partner 0.5 µM)
In short: as §1

Row | Cell Line | relative viability (Carboplatin + Alpelisib; first compound 0.08 µM) | relative viability (Carboplatin + Alpelisib; first compound 0.253 µM) | relative viability (Carboplatin + Alpelisib; first compound 0.8 µM) | relative viability (Carboplatin + Alpelisib; first compound 2.53 µM) | relative viability (Carboplatin + Alpelisib; first compound 8 µM) | relative viability (MLN4924 + AZD7762; first compound 0.04 µM) | relative viability (MLN4924 + AZD7762; first compound 0.1265 µM) | relative viability (MLN4924 + AZD7762; first compound 0.4 µM) | relative viability (MLN4924 + AZD7762; first compound 1.265 µM) | relative viability (MLN4924 + AZD7762; first compound 4 µM) | relative viability (GSK126 + Tozasertib; first compound 0.08 µM) | relative viability (GSK126 + Tozasertib; first compound 0.253 µM) | relative viability (GSK126 + Tozasertib; first compound 0.8 µM) | relative viability (GSK126 + Tozasertib; first compound 2.53 µM) | relative viability (GSK126 + Tozasertib; first compound 8 µM) | relative viability (MLN4924 + Navitoclax; first compound 0.04 µM) | relative viability (MLN4924 + Navitoclax; first compound 0.1265 µM) | relative viability (MLN4924 + Navitoclax; first compound 0.4 µM) | relative viability (MLN4924 + Navitoclax; first compound 1.265 µM) | relative viability (MLN4924 + Navitoclax; first compound 4 µM)
1 | NCI-H1975 | 0.669 | 0.655 | 0.728 | 0.598 | 0.666 | 0.636 | 0.973 | 1.54 | 1.79 | 0.756 | 0.833 | 0.69 | 0.762 | 0.648 | 0.48 | 1.15 | 1.27 | 1.14 | 0.571 | 0.309
2 | BEN | 1.11 | 1.04 | 0.891 | 0.798 | 0.909 | 0.66 | 0.76 | 0.561 | 0.321 | 0.264 | 0.516 | 0.388 | 0.669 |  | 0.462 | 0.0403 | 0.0516 | 0.045 | 0.0476 | 0.0518
3 | NCI-H441 | 0.896 | 0.694 | 0.643 | 0.651 | 0.692 | 1.23 | 1.12 | 0.722 | 0.452 | 0.173 | 0.68 | 0.571 | 0.567 | 0.545 | 0.461 | 0.708 | 0.489 | 0.357 | 0.138 | 0.173
4 | NCI-H2170 | 0.882 | 0.852 | 0.801 | 0.794 | 0.636 | 0.9 | 0.536 | 0.544 | 0.147 | 0.112 | 0.697 | 0.661 | 0.764 | 0.651 | 0.661 | 0.709 | 0.313 | 0.34 | 0.144 | 0.164
5 | HCC-44 | 0.904 | 0.887 | 0.733 | 0.717 | 0.635 | 1.03 | 0.992 | 0.824 | 0.563 | 0.478 | 0.942 | 0.877 | 0.88 | 0.983 | 0.897 | 0.689 | 0.4 | 0.265 | 0.197 | 0.196
6 | NCI-H3122 | 0.773 | 0.862 | 0.869 | 0.762 | 0.764 | 0.916 | 0.485 | 0.229 | 0.132 | 0.105 | 0.423 | 0.393 | 0.367 | 0.33 | 0.344 | 0.929 | 0.448 | 0.262 | 0.171 | 0.164
7 | NCI-H1355 | 0.885 | 0.866 | 0.843 | 0.687 | 0.721 | 0.833 | 0.875 | 0.788 | 0.441 | 0.234 | 0.573 | 0.495 | 0.546 | 0.533 | 0.378 | 0.982 | 0.847 | 0.657 | 0.268 | 0.302
8 | NCI-H1734 | 0.647 | 0.757 | 0.632 | 0.67 | 0.589 | 0.863 | 0.641 | 0.204 | 0.104 | 0.111 | 0.322 | 0.235 | 0.295 | 0.224 | 0.283 | 0.943 | 0.814 | 0.331 | 0.103 | 0.0958
9 | LXF-289 | 1.05 | 1.12 | 1.01 | 0.975 | 0.995 | 1.06 | 0.775 | 0.691 | 0.113 | 0.0848 | 0.162 | 0.149 | 0.218 | 0.176 | 0.181 | 0.848 | 0.664 | 0.524 | 0.174 | 0.113
10 | RERF-LC-KJ | 0.887 | 0.806 | 0.81 | 0.883 | 0.594 | 0.941 | 0.738 | 0.256 | 0.182 | 0.253 | 0.562 | 0.449 | 0.489 | 0.485 | 0.357 | 0.855 | 0.569 | 0.229 | 0.177 | 0.209
11 | NCI-H2087 | 1.18 | 1.04 | 0.992 | 0.848 | 0.647 | 1.3 | 1.17 | 0.604 | 0.165 | 0.128 | 0.23 | 0.222 | 0.214 | 0.202 | 0.258 | 0.923 | 0.682 | 0.379 | 0.177 | 0.132
12 | NCI-H1793 | 0.874 | 0.645 | 0.561 | 0.751 | 0.588 | 0.714 | 0.463 | 0.51 | 0.406 | 0.216 | 0.324 | 0.331 | 0.422 | 0.475 | 0.363 | 0.386 | 0.458 | 0.412 | 0.276 | 0.283
13 | HCC-827 | 1.07 | 0.962 | 0.9 | 0.944 | 0.893 | 0.687 | 0.556 | 0.374 | 0.195 | 0.151 | 0.428 | 0.433 | 0.453 | 0.387 | 0.408 | 0.925 | 0.747 | 0.492 | 0.275 | 0.237
14 | NCI-H1395 | 1.18 | 1.03 | 0.768 | 0.68 | 0.578 | 0.493 | 0.416 | 0.383 | 0.408 | 0.331 | 0.787 | 0.763 | 0.831 | 0.683 | 0.669 | 0.981 | 1.19 | 0.651 | 0.407 | 0.375
15 | NCI-H23 | 0.659 | 0.75 | 0.623 | 0.681 | 0.635 | 0.304 | 0.263 | 0.282 | 0.213 | 0.28 | 0.374 | 0.374 | 0.354 | 0.624 | 0.266 | 0.759 | 0.69 | 0.281 | 0.218 | 0.148
16 | HARA | 0.814 | 0.812 | 0.714 | 0.719 | 0.73 | 0.42 | 0.328 | 0.415 | 0.0749 | 0.106 | 0.131 | 0.0947 | 0.0975 | 0.0847 | 0.106 | 0.847 | 0.601 | 0.379 | 0.105 | 0.115
